From patent US4351948A, “Imidazole hydrazone derivatives” (priority 1980, dated 1982)
Counter-ions that a name gives are not always drawn. Like-named read-outs stand apart in the source and are kept apart here.

Tests used:
Experiment in all cases: Antianaerobic activity, MIC by standard broth dilution method (Table II)
Type in all cases: cell-based
C. sporogenes ATCC 19404 = details: Clostridium sporogenes, ATCC19404, 24 h, read-out: Minimal Inhibitory Concentration (MIC)
Procedure: The activity of the compounds identified in the Table II below was tested for antianaerobic activity against one strain of Bacteroides fragilis, one strain of Bacteroides uniformis, one strain of Clostridium sporogenes and one strain of Trichomonas vaginalis as the test organism. The methods used involved determining the minimum inhibitory concentration by the standard broth dilution method. The values for metronidazole (2-methyl-5-nitro-1H-imidazole-1-ethanol) are given above for reference purposes. For convenience the compounds are referred to by an internal reference number (an HC number) and this is correlated with the number of the Example wherein its production is described.

B. fragilis ATCC 23745 = details: Bacteroides fragilis, ATCC23745, 24 h, read-out: Minimal Inhibitory Concentration (MIC)
Procedure: (§1) The activity of the compounds identified in the Table II below was tested for antianaerobic activity against one strain of Bacteroides fragilis, one strain of Bacteroides uniformis, one strain of Clostridium sporogenes and one strain of Trichomonas vaginalis as the test organism. The methods used involved determining the minimum inhibitory concentration by the standard broth dilution method. […] For convenience the compounds are referred to by an internal reference number (an HC number) and this is correlated with the number of the Example wherein its production is described.

B. uniformis ATCC 8492 = details: Bacteroides uniformis, ATCC8492, 24 h, read-out: Minimal Inhibitory Concentration (MIC)
Procedure: as §1

T. vaginalis ATCC 30001 = details: Trichomonas vaginalis, ATCC30001, 24 h, read-out: Minimal Inhibitory Concentration (MIC)
Procedure: as §1

| Structure (SMILES) | MIC (C. sporogenes ATCC 19404; Test 1) | MIC (C. sporogenes ATCC 19404; Test 2) | MIC (C. sporogenes ATCC 19404; Test 3) | MIC (B. fragilis ATCC 23745; Test 1) | MIC (B. fragilis ATCC 23745; Test 2) | MIC (B. fragilis ATCC 23745; Test 3) | MIC (B. uniformis ATCC 8492; Test 1) | MIC (B. uniformis ATCC 8492; Test 2) | MIC (B. uniformis ATCC 8492; Test 3) | MIC (T. vaginalis ATCC 30001; Test 2) | MIC (T. vaginalis ATCC 30001; Test 3) | MIC (T. vaginalis ATCC 30001; Test 1) |
| --- | --- | --- | --- | --- | --- | --- | --- | --- | --- | --- | --- | --- |
| Cl.FC(F)(F)c1cccc(C(Cn2ccnc2)=NNc2c(Cl)cccc2Cl)c1 [HC474, 1-(3-trifluoromethylphenyl)-2-(1H-imidazol-1-yl)ethanone, 2,6-dichlorophenylhydrazone, hydrochloride] | 7.5 µg/mL | 5 µg/mL | 5 µg/mL | 5 µg/mL | 7.5 µg/mL | 7.5 µg/mL | 10 µg/mL | 5 µg/mL | 7.5 µg/mL | 50 µg/mL | 50 µg/mL | – |
| Clc1ccc(NN=C(Cn2ccnc2)c2ccc(Cl)s2)c(Cl)c1 [HC-363, 1-(5-chlorothien-2-yl)-2-(1H-imidazol-1-yl) ethanone, 2,4-dichlorophenylhydrazone, hydrochloride] | 2.5 µg/mL | 2.5 µg/mL | 7.5 µg/mL | 1 µg/mL | 2.5 µg/mL | 2.5 µg/mL | 2.5 µg/mL | 2.5 µg/mL | 2.5 µg/mL | 50 µg/mL | 50 µg/mL | 50 µg/mL |
| Clc1ccc(NN=C(Cn2ccnc2)c2cc(Cl)ccc2Cl)c(Cl)c1 [HC-525, 1-(2,5-dichlorophenyl)-2-(1H-imidazol-1-yl) ethanone, 2,4-dichlorophenylhydrazone, hydrochloride] | 2.5 µg/mL | 2.5 µg/mL | 2.5 µg/mL | 2.5 µg/mL | 2.5 µg/mL | 2.5 µg/mL | 2.5 µg/mL | 2.5 µg/mL | 2.5 µg/mL | 50 µg/mL | 50 µg/mL | 50 µg/mL |
| COc1ccc(C(Cn2ccnc2)=NNc2cc(Cl)ccc2Cl)cc1.Cl [HC-464, 1-(4-methoxyphenyl)-2-(1H-imidazol-1-yl)ethanone, 2,5-dichlorophenylhydrazone, hydrochloride] | 2.5 µg/mL | 5 µg/mL | 2.5 µg/mL | 2.5 µg/mL | 5 µg/mL | 5 µg/mL | 2.5 µg/mL | 2.5 µg/mL | 2.5 µg/mL | 50 µg/mL | 50 µg/mL | 10 µg/mL |
| Cl.Clc1ccc(NN=C(Cn2ccnc2)c2ccccc2)c(Cl)c1 [HC-306, 1-Phenyl-2-(1H-imidazol-1-yl)ethanone, 2,4-dichlorophenylhydrazone, hydrochloride] | 10 µg/mL | 2.5 µg/mL | 2.5 µg/mL | 10 µg/mL | 2.5 µg/mL | 2.5 µg/mL | 10 µg/mL | 2.5 µg/mL | 2.5 µg/mL | 50 µg/mL | 25 µg/mL | 50 µg/mL |
| Cl.Clc1cccc(Cl)c1NN=C(Cn1ccnc1)c1ccc(Br)s1 [HC-466, 1-(5-bromothien-2-yl)-2-(1H-imidazol-1-yl)ethanone, 2,6-dichlorophenylhydrazone, hydrochloride] | 5 µg/mL | 5 µg/mL | 5 µg/mL | 1 µg/mL | 5 µg/mL | 5 µg/mL | 1 µg/mL | 5 µg/mL | 5 µg/mL | 50 µg/mL | 50 µg/mL | 50 µg/mL |
| Cl.Fc1ccccc1C(Cn1ccnc1)=NNc1cccc(Cl)c1Cl [HC-507, 1-(2-fluorophenyl)-2-(1H-imidazol-1-yl)ethanone, 2,3-dichlorophenylhydrazone, hydrochloride] | 2.5 µg/mL | 2.5 µg/mL | – | 2.5 µg/mL | 5 µg/mL | – | 5 µg/mL | 2.5 µg/mL | – | – | – | – |
| Cl.Fc1ccc(C(Cn2ccnc2)=NNc2ccc(Cl)c(Cl)c2)cc1 [HC-506, 1-(4-fluorophenyl)-2-(1H-imidazol-1-yl)ethanone, 3,4-dichlorophenylhydrazone, hydrochloride] | > 50 µg/mL | > 50 µg/mL | – | 5 µg/mL | 5 µg/mL | – | 5 µg/mL | 2.5 µg/mL | – | – | – | – |
| Clc1ccc(NN=C(Cn2ccnc2)c2ccc(Cl)cc2Cl)c(Cl)c1 [HC-380, 1-(2,4-dichlorophenyl)-2-(1H-imidazol-1-yl) ethanone, 2,4-dichlorophenylhydrazone, hydrochloride] | 10 µg/mL | 2.5 µg/mL | 2.5 µg/mL | 10 µg/mL | 2.5 µg/mL | 2.5 µg/mL | 10 µg/mL | 2.5 µg/mL | 2.5 µg/mL | 25 µg/mL | 25 µg/mL | 50 µg/mL |
| Cl.FC(F)(F)c1ccc(C(Cn2ccnc2)=NNc2c(Cl)cccc2Cl)cc1 [HC-438, 1-(4-trifluoromethylphenyl)-2-(1H-imidazol-1-yl)ethanone, 2,6-dichlorophenylhydrazone, hydrochloride] | 2.5 µg/mL | 7.5 µg/mL | 2.5 µg/mL | 5 µg/mL | 7.5 µg/mL | 5 µg/mL | 5 µg/mL | 5 µg/mL | 5 µg/mL | 50 µg/mL | 75 µg/mL | 25 µg/mL |
| Cl.Clc1cc(Cl)c(NN=C(Cn2ccnc2)c2ccccc2Cl)c(Cl)c1 [HC-523, 1-(2-chlorophenyl)-2-(1H-imidazol-1-yl)ethanone, 2,4,6-trichlorophenylhydrazone, hydrochloride] | 2.5 µg/mL | 2.5 µg/mL | 5 µg/mL | 7.5 µg/mL | 5 µg/mL | 7.5 µg/mL | 5 µg/mL | 2.5 µg/mL | 5 µg/mL | 50 µg/mL | 50 µg/mL | 50 µg/mL |
| Cl.Clc1ccc(C(Cn2ccnc2)=NNc2ccccc2Br)cc1 [HC-486, 1-(4-chlorophenyl)-2-(1H-imidazol-1-yl)ethanone, 2-bromophenylhydrazone, hydrochloride] | 2.5 µg/mL | 5 µg/mL | 5 µg/mL | 5 µg/mL | 5 µg/mL | 5 µg/mL | 2.5 µg/mL | 2.5 µg/mL | 5 µg/mL | 50 µg/mL | 75 µg/mL | 50 µg/mL |
| Cl.FC(F)(F)c1ccc(C(Cn2ccnc2)=NNc2c(Cl)cc(Cl)cc2Cl)cc1 [HC-482, 1-(4-trifluoromethylphenyl)-2-(1H-imidazol-1-yl)ethanone, 2,4,6-trichlorophenylhydrazone, hydrochloride] | 5 µg/mL | 5 µg/mL | 5 µg/mL | 5 µg/mL | 5 µg/mL | 5 µg/mL | 2.5 µg/mL | 2.5 µg/mL | 2.5 µg/mL | 25 µg/mL | 25 µg/mL | 25 µg/mL |
